Experimental data: patent US10954219B2, “1,3-benzodioxole derivative” (DAIICHI SANKYO COMPANY, LIMITED, priority 2014, dated 2021)

Tests used:
[1] = test system: EZH2 Y641N mutant human diffuse large B-cell lymphoma KARPAS-422-subcutaneously transplanted model; test: Antitumor activity, KARPAS-422-subcutaneously transplanted model; type: in vivo, female SCID mice; details: oral, QD × 14, 45 days after grouping
From the text: Evaluation of Antitumor Activity Against EZH2 Y641N Mutant Human Diffuse Large B-Cell Lymphoma KARPAS-422-Subcutaneously Transplanted Model
EZH2 Y641N mutant human diffuse large B-cell lymphoma KARPAS-422 cells were subcutaneously transplanted in an amount of 2×10^7 cells/head to the right abdomens of female SCID mice. After 30 days, the mice were grouped on the basis of their presumed tumor volumes (major axis×minor axis×minor axis/2) and body weights. The KARPAS-422 cells were purchased from DSMZ. […] The tumor volume of each individual was measured from the grouping date to 45 days thereafter (test completion date).

[2] = molecular target: PRC2-EZH1 (WT EZH1) (Homo sapiens, UniProt Q92800); test: EZH1 methyltransferase inhibitory activity evaluation
PRC2-EZH1 (WT EZH1), sequence (Q92800 whole entry): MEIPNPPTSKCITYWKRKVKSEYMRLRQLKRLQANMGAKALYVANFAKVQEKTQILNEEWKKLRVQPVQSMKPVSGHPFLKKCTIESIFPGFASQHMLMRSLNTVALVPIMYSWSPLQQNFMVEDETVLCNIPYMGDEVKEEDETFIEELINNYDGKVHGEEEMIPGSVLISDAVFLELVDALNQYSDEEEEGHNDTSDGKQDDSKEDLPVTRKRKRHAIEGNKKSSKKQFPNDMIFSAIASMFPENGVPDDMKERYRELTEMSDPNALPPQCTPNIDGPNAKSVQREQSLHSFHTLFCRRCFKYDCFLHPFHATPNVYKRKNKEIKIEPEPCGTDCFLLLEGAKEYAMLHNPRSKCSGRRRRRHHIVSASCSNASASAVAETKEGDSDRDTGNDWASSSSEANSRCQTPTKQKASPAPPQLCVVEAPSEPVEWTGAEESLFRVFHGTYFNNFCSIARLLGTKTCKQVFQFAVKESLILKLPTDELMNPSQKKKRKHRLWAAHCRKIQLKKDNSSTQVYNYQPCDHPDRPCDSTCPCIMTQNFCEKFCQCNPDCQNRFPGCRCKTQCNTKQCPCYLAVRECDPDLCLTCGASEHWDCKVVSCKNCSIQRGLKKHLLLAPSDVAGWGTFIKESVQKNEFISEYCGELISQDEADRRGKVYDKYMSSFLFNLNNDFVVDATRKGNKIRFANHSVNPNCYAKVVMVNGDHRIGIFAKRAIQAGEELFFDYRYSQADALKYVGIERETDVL
PRC2-EZH1 (WT EZH1), sequence (O75530 whole entry partner): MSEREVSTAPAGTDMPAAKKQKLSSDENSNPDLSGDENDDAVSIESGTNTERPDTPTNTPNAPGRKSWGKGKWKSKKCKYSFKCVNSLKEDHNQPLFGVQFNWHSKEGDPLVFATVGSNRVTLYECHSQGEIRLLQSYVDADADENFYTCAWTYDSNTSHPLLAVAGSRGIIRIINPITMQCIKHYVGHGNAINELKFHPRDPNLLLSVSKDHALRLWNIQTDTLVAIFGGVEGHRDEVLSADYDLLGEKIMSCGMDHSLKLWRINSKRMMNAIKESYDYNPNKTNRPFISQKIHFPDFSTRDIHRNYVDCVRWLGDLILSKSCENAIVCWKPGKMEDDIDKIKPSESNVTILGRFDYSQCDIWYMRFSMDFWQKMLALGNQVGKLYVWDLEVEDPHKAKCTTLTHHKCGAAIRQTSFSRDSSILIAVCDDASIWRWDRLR
PRC2-EZH1 (WT EZH1), sequence (Q15022 whole entry partner): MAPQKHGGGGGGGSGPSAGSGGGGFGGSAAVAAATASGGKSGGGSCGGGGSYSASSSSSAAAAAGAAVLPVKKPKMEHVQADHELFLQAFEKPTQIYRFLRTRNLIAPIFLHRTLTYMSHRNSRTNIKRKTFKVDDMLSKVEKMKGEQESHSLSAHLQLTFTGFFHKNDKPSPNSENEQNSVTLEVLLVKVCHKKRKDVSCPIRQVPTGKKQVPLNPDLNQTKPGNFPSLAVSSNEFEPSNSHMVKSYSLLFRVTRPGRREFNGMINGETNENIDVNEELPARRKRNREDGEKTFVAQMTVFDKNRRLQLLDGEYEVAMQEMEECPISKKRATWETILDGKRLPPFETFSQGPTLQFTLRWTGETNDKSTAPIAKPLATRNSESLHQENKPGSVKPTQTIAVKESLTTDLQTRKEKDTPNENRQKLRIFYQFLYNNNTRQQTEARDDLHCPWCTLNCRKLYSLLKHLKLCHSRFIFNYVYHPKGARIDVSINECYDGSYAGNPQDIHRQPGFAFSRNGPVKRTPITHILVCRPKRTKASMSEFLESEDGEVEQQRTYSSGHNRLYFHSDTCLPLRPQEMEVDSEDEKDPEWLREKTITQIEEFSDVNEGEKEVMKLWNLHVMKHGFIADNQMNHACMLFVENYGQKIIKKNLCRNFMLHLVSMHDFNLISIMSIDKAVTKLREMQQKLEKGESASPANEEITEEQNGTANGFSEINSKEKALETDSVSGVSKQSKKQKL
PRC2-EZH1 (WT EZH1), sequence (Q09028 whole entry partner): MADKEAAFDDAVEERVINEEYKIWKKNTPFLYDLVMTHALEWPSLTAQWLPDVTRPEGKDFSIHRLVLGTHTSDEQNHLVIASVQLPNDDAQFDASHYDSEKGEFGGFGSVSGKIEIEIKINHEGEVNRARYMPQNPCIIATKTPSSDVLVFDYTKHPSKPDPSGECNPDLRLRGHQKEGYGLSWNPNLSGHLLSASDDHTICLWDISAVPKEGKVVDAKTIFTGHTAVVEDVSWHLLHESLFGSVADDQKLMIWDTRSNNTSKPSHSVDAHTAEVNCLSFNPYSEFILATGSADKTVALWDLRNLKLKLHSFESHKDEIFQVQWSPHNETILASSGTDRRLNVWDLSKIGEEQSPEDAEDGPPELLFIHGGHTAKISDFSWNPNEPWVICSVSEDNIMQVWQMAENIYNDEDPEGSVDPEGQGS
PRC2-EZH1 (WT EZH1), sequence (Q6ZN18 whole entry partner): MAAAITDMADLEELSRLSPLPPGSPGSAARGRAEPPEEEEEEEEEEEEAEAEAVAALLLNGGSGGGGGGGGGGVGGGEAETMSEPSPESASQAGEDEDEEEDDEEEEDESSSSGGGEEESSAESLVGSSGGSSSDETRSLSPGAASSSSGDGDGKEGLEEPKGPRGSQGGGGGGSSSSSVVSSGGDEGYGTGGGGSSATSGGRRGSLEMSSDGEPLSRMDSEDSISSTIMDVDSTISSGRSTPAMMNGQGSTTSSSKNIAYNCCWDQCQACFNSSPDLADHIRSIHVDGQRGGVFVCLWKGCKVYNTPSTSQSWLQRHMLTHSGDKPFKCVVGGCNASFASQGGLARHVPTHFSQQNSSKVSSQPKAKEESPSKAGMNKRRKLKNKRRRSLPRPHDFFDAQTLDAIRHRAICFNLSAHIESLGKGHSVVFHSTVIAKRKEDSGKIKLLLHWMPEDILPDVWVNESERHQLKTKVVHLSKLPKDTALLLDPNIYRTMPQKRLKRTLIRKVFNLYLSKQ
Method: EZH1 Methyltransferase Inhibitory Activity Evaluation
(§1) Then, the residual radioactivity was measured using TopCount NXT HTS (PerkinElmer, Inc., model C384V01).

[3] = molecular target: T1, PRC2-EZH2 (WT EZH2) (Homo sapiens, UniProt Q15910); test: EZH2 methyltransferase inhibitory activity evaluation; type: biochemical; details: PRC2-EZH2, biotin-H3 peptide, 3H-SAM, 2 hours
T1 construct: made in house
T1 sequence (Q15910 whole entry): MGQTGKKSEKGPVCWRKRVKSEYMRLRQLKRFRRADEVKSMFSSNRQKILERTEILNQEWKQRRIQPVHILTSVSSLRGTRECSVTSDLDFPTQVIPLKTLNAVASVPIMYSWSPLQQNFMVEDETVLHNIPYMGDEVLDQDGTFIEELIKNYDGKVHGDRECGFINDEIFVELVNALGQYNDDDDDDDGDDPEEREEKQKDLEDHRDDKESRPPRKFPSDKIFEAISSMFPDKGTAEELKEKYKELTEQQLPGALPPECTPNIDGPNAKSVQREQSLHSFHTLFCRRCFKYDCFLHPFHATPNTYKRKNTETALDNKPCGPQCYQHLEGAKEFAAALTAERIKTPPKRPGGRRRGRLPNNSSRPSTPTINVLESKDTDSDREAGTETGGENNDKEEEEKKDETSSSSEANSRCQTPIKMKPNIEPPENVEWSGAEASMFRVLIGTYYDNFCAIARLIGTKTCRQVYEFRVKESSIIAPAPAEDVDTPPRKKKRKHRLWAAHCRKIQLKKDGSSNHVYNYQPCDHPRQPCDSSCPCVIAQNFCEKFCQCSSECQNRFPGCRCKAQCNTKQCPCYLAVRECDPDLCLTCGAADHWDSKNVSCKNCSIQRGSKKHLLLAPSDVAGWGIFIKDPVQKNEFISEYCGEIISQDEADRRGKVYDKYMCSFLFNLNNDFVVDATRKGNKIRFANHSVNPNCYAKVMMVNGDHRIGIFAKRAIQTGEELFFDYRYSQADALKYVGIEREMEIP
T1 sequence (O75530 whole entry partner): as the sequence (O75530 whole entry partner) above
T1 sequence (Q15022 whole entry partner): as the sequence (Q15022 whole entry partner) above
Method: EZH2 Methyltransferase Inhibitory Activity Evaluation
as §1

[4] = test system: Intracellular H3K27me3 in HCT116 cells; test: Intracellular H3K27me3 inhibitory activity evaluation; type: cell-based; details: Homo sapiens, HCT-116, 72 h, 3 days, AlphaLISA, read-out: Test Example 3 H3K27me3 inhibition (HCT116) IC50
Method: The HCT116 cells were purchased from American Type Culture Collection (ATCC). […] Intracellular H3K27me3 was quantified using AlphaLISA H3K27me3 Cellular Detection Kit (PerkinElmer, Inc., #AL722F). The cells thus cultured in each well were washed with 100 μL of PBS. Cell-Histone Lysis buffer diluted 6-fold with PBS was added thereto at 80 μL/well, and the plate was then incubated at room temperature for 15 minutes while shaken. Then, Cell-Histone Extraction buffer was added thereto at 40 μL/well, and the plate was incubated at room temperature for 10 minutes while shaken. […] An AlphaLISA anti-H3K27me3 Acceptor beads/Biotinylated Antibody anti-Histone H3 (C-ter) mixed solution was added thereto at 3.3 μL/well, and the plate was incubated at room temperature for 60 minutes. Then, Streptavidin (SA)-coated Donor beads were added thereto at 3.3 μL/well, and the plate was incubated at room temperature for 30 minutes with the plate shielded from light.

SMILES	Extent of tumor growth inhibition ([1]; KARPAS-422, 5 mg/kg)	Extent of tumor growth inhibition ([1]; KARPAS-422, 25 mg/kg)	Extent of tumor regression ([1]; KARPAS-422, 25 mg/kg)	IC50 [2]	IC50 [3]	IC50 [4]
Cc1cc(C)c(CNC(=O)c2cc(Br)c3c(c2C)O[C@@](C)([C@H]2CC[C@H](N(C)C)CC2)O3)c(=O)[nH]1 (single isomer, unassigned) [Example 15]	54%	>100%	27%			
COCCN1CCC([C@@]2(C)Oc3c(Br)cc(C(=O)NCc4c(C)cc(C)[nH]c4=O)c(C)c3O2)CC1 [Example 10, (2R)-7-Bromo-N-[(4,6-dimethyl-2-oxo-1H-pyridin-3-yl)methyl]-2-[l-(2-methoxyethyl)-4-piperidyl]-2,4-dimethyl-1,3-benzodioxole-5-carboxamide]				130 nM	11 nM	18 nM
CCCc1cc(C)[nH]c(=O)c1CNC(=O)c1cc(Br)c2c(c1C)O[C@@](C)(C1CCN(CC)CC1)O2 [Example 12, (2R)-7-Bromo-2-(1-ethyl-4-piperidyl)-2,4-dimethyl-N-[(6-methyl-2-oxo-4-propyl-1,2-dihydropyridin-3-yl)methyl]-1,3-benzodioxole-5-carboxamide]				200 nM	28 nM	140 nM
Cc1cc(C)c(CNC(=O)c2cc(Br)c3c(c2C)OC(C)(CC2CCN(C)CC2)O3)c(=O)[nH]1 (stereo not drawn) [Example 25, 7-Bromo-N-[(4,6-dimethyl-2-oxo-1,2-dihydropyridin-3-yl)methyl]-2,4-dimethyl-2-[(1-methyl-4-piperidyl)methyl]-1,3-benzodioxole-5-carboxamide]				110 nM	12 nM	45 nM
CCN1CCC(CC2(C)Oc3c(Br)cc(C(=O)NCc4c(C)cc(C)[nH]c4=O)c(C)c3O2)CC1 (stereo not drawn) [Example 26, 7-Bromo-N-[(4,6-dimethyl-2-oxo-1,2-dihydropyridin-3-yl)methyl]-2-[(1-ethyl-4-piperidyl)methyl]-2,4-dimethyl-1,3-benzodioxole-5-carboxamide]				190 nM	23 nM	37 nM
Cc1cc(C)c(CNC(=O)c2cc(Br)c3c(c2C)O[C@@](C)(CO[C@H]2CCN(C)C2)O3)c(=O)[nH]1 [Example 29, (2R)-7-Bromo-N-[(4,6-dimethyl-2-oxo-1,2-dihydropyridin-3-yl)methyl]-2,4-dimethyl-2-[[(3S)-1-methylpyrrolidin-3-yl]oxymethyl]-1,3-benzodioxole-5-carboxamide]				68 nM	9.4 nM	16 nM
Cc1cc(C)c(CNC(=O)c2cc(Cl)c3c(c2C)OC(C)(C2CC4(CC(N(C)C)C4)C2)O3)c(=O)[nH]1 (stereo not drawn) [Example 30, 7-Chloro-2-[2-(dimethylamino)spiro[3.3]heptan-6-yl]-N-[(4,6-dimethyl-2-oxo-1,2-dihydropyridin-3-yl)methyl]-2,4-dimethyl-1,3-benzodioxole-5-carboxamide]				180 nM	21 nM	16 nM
CCN1CCC([C@@]2(C)Oc3c(Cl)cc(C(=O)NCc4c(C)cc(C)[nH]c4=O)c(C)c3O2)CC1 [Example 31, (2R)-7-Chloro-N-[(4,6-dimethyl-2-oxo-1,2-dihydropyridin-3-yl)methyl]-2-(1-ethyl-4-piperidyl)-2,4-dimethyl-1,3-benzodioxole-5-carboxamide]				110 nM	18 nM	9 nM
Cc1cc(C)c(CNC(=O)c2cc(Cl)c3c(c2C)OC(C)([C@@H]2CC[C@@H](N(C)C)CO2)O3)c(=O)[nH]1 (stereo partly drawn) [Example 38, 7-Chloro-2-[(2S,5R)-5-(dimethylamino)tetrahydropyran-2-yl]-N-[(4,6-dimethyl-2-oxo-1,2-dihydropyridin-3-yl)methyl]-2,4-dimethyl-1,3-benzodioxole-5-carboxamide]				57 nM	12 nM	2.8 nM
COc1cc(C)[nH]c(=O)c1CNC(=O)c1cc(Cl)c2c(c1C)OC(C)([C@@H]1CC[C@@H](N(C)C)CO1)O2 (stereo partly drawn) [Example 39, 7-Chloro-2-[(2S,5R)-5-(dimethylamino)tetrahydropyran-2-yl]-N-[(4-methoxy-6-methyl-2-oxo-1,2-dihydropyridin-3-yl)methyl]-2,4-dimethyl-1,3-benzodioxole-5-carboxamide]				40 nM	14 nM	2.2 nM
Cc1cc(C)c(CNC(=O)c2cc(Cl)c3c(c2C)OC(C)(CC2CCN(C)CC2)O3)c(=O)[nH]1 (stereo not drawn) [Example 40, 7-Chloro-N-[(4,6-dimethyl-2-oxo-1,2-dihydropyridin-3-yl)methyl]-2,4-dimethyl-2-[(1-methyl-4-piperidyl)methyl]-1,3-benzodioxole-5-carboxamide]				210 nM	11 nM	32 nM
Cc1cc(C)c(CNC(=O)c2cc(Br)c3c(c2C)OC(C)(CN2CCNCC2)O3)c(=O)[nH]1 (stereo not drawn) [Example 42, 7-Bromo-N-[(4,6-dimethyl-2-oxo-1,2-dihydropyridin-3-yl)methyl]-2,4-dimethyl-2-(piperazin-1-ylmethyl)-1,3-benzodioxole-5-carboxamide]				190 nM	27 nM	67 nM
Cc1cc(C)c(CNC(=O)c2cc(Br)c3c(c2C)OC(C)(CN2CCN(C)CC2)O3)c(=O)[nH]1 (stereo not drawn) [Example 43, 7-Bromo-N-[(4,6-dimethyl-2-oxo-1,2-dihydropyridin-3-yl)methyl]-2,4-dimethyl-2-[(4-methylpiperazin-1-yl)methyl]-1,3-benzodioxole-5-carboxamide]				380 nM	41 nM	44 nM
Cc1cc(C)c(CNC(=O)c2cc(Br)c3c(c2C)OC(C)(CN2CCC(N(C)C)CC2)O3)c(=O)[nH]1 (stereo not drawn) [Example 44, 7-Bromo-2-[[4-(dimethylamino)-1-piperidyl]methyl]-N-[(4,6-dimethyl-2-oxo-1,2-dihydropyridin-3-yl)methyl]-2,4-dimethyl-1,3-benzodioxole-5-carboxamide]				77 nM	7.9 nM	14 nM
Cc1cc(C)c(CNC(=O)c2cc(Br)c3c(c2C)O[C@@](C)(CN2CCOCC2)O3)c(=O)[nH]1 [Example 45, (2R)-7-Bromo-N-[(4,6-dimethyl-2-oxo-1,2-dihydropyridin-3-yl)methyl]-2,4-dimethyl-2-(morpholinomethyl)-1,3-benzodioxole-5-carboxamide]				110 nM	9.6 nM	13 nM
Cc1cc(C)c(CNC(=O)c2cc(C)c3c(c2C)OC(C)([C@@H]2CC[C@@H](N(C)C)CO2)O3)c(=O)[nH]1 (stereo partly drawn) [Example 49, 2-[(2S,5R)-5-(Dimethylamino)tetrahydropyran-2-yl]-N-[(4,6-dimethyl-2-oxo-1,2-dihydropyridin-3-yl)methyl]-2,4,7-trimethyl-1,3-benzodioxole-5-carboxamide]				92 nM	18 nM	2.6 nM
Cc1cc(C)c(CNC(=O)c2cc(Cl)c3c(c2Cl)OC(C)(C2CCN(C)CC2)O3)c(=O)[nH]1 (stereo not drawn) [Example 51, 4,7-Dichloro-N-[(4,6-dimethyl-2-oxo-1,2-dihydropyridin-3-yl)methyl]-2-methyl-2-(1-methyl-4-piperidyl)-1,3-benzodioxole-5-carboxamide]				390 nM	35 nM	42 nM
CCN1CCC(C2(C)Oc3c(Cl)cc(C(=O)NCc4c(C)cc(C)[nH]c4=O)c(Cl)c3O2)CC1 (stereo not drawn) [Example 52, 4,7-Dichloro-N-[(4,6-dimethyl-2-oxo-1,2-dihydropyridin-3-yl)methyl]-2-(1-ethyl-4-piperidyl)-2-methyl-1,3-benzodioxole-5-carboxamide]				370 nM	29 nM	37 nM
Cc1cc(C)c(CNC(=O)c2cc(Cl)c3c(c2Cl)OC(C)([C@@H]2CC[C@@H](N(C)C)CO2)O3)c(=O)[nH]1 (stereo partly drawn) [Example 54, 4,7-Dichloro-2-[(2S,5R)-5-(dimethylamino)tetrahydropyran-2-yl]-N-[(4,6-dimethyl-2-oxo-1,2-dihydropyridin-3-yl)methyl]-2-methyl-1,3-benzodioxole-5-carboxamide]				210 nM	27 nM	3.8 nM
CCN1CCN(c2ccc(-c3cc(C(=O)NCc4c(C)cc(C)[nH]c4=O)c(C)c4c3OC(CC)(C3CCOCC3)O4)cn2)CC1 (stereo not drawn) [Example 55, N-[(4,6-Dimethyl-2-oxo-1,2-dihydropyridin-3-yl)methyl]-2-ethyl-7-[6-(4-ethylpiperazin-1-yl)-3-pyridyl]-4-methyl-2-(tetrahydropyran-4-yl)-1,3-benzodioxole-5-carboxamide]				53 nM	28 nM	11 nM
CCN1CCN(c2ccc(-c3cc(C(=O)NCc4c(C)cc(C)[nH]c4=O)c(C)c4c3OC(C)(C3CCOCC3)O4)cn2)CC1 (stereo not drawn) [Example 56, N-[(4,6-Dimethyl-2-oxo-1,2-dihydropyridin-3-yl)methyl]-7-[6-(4-ethylpiperazin-1-yl)-3-pyridyl]-2,4-dimethyl-2-(tetrahydropyran-4-yl)-1,3-benzodioxole-5-carboxamide]				68 nM	23 nM	6.4 nM
CCN1CCN(c2ccc(-c3cc(C(=O)NCc4c(C)cc(C)[nH]c4=O)c(C)c4c3OC(C)(C3CCOC3)O4)cn2)CC1 (stereo not drawn) [Example 57, N-[(4,6-Dimethyl-2-oxo-1,2-dihydropyridin-3-yl)methyl]-7-[6-(4-ethylpiperazin-1-yl)-3-pyridyl]-2,4-dimethyl-2-(tetrahydrofuran-3-yl)-1,3-benzodioxole-5-carboxamide]				110 nM	36 nM	12 nM
